Data: US20120165384A1, “INHIBITION OF HISTONE ACETYLTRANSFERASES BY CTK7A AND METHODS THEREOF” (JAWAHARLAL NEHRU CENTRE FOR ADVANCED SCIENTIFIC RESEARCH, priority 2009, published 2012)

Legend:
[1] = test system: H3 acetylation at the cyclin E promoter in KB cells; assay: ChIP assay, acetylated H3 at cyclin E promoter; assay type: cell-based; conditions: 24 hrs treatment
Description: The pull-downs for ChIP assay was performed using anti-acetylated H3 (H3AcK9AcK14) (Santa Cruz) antibody. KB cells were maintained in DMEM supplemented with 10% FBS were treated with CTK7A and cells were grown for 24 hrs. For ChIP assay cells were processed as described elsewhere^47. The pulldown was done using antibody against the above antibody and the immunoprecipitated samples were deproteinized and ethanol-precipitated to recover the DNA. Real-time PCR analysis was performed using primers for the cyclin E promoter region. PCR primers for the cyclin E promoter region were […]

G9a = molecular target: T1, G9a (Homo sapiens, UniProt Q96KQ7); assay: Histone methyltransferase (HMTase) assay, G9a; assay type: biochemical; conditions: even at 100 μM
T1 construct: hexahistidine; made in house; host or cells: baculovirus-infected Sf21 cells
T1 sequence (Q96KQ7 1-1210): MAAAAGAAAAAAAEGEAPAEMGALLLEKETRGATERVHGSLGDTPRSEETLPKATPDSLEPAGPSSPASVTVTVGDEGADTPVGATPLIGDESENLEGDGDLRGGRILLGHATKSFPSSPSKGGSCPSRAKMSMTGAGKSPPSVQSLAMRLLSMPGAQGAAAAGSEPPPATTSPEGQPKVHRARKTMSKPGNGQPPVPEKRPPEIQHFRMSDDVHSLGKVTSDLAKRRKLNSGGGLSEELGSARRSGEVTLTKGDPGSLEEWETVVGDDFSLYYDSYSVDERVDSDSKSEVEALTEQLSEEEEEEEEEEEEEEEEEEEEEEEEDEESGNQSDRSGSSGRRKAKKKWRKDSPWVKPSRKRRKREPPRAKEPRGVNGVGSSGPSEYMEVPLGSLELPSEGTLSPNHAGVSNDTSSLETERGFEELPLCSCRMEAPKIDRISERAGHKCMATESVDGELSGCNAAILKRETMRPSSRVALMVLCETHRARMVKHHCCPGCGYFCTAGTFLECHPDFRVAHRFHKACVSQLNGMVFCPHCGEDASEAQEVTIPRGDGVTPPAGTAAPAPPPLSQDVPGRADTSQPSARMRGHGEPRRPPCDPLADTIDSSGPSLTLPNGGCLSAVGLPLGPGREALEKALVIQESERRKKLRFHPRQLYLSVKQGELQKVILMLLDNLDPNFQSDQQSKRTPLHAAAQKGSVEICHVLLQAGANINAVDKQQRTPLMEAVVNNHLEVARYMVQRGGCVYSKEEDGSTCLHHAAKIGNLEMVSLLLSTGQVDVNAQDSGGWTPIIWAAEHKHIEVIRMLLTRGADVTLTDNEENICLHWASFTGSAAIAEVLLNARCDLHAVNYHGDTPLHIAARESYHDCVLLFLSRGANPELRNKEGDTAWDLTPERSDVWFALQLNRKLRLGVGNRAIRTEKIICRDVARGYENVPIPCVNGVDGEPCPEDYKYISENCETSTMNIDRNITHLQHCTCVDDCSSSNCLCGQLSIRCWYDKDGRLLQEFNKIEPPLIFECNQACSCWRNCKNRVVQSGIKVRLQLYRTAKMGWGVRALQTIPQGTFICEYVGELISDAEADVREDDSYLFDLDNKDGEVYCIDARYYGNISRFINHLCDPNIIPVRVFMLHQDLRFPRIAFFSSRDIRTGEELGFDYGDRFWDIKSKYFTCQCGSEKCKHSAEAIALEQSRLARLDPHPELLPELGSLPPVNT
Description: Recombinant baculovirus expressing full-length FLAG-tagged CARM1,CBP and PCAF were purified by immunoaffinity chromatography using M2-agarose beads followed by elution with FLAG peptide. Baculovirus-expressed full-length hexahistidine-tagged p300, and G9a were purified using Ni-NTA affinity chromatography as described previously^30.
(§1) The deacetylation assay was performed as per standard protocol^31. For SirT2 deacetylase assay, 50 ng of bacterially expressed, recombinant enzyme was added in the presence or absence of cofactor NAD^+. HMTase was performed as reported earlier^31.

SIRT2 = molecular target: T2, SIRT2 (Homo sapiens, UniProt Q8IXJ6); assay: SirT2 deacetylase assay; assay type: biochemical; conditions: even at 100 μM
T2 construct: made in house
T2 sequence (Q8IXJ6 1-389): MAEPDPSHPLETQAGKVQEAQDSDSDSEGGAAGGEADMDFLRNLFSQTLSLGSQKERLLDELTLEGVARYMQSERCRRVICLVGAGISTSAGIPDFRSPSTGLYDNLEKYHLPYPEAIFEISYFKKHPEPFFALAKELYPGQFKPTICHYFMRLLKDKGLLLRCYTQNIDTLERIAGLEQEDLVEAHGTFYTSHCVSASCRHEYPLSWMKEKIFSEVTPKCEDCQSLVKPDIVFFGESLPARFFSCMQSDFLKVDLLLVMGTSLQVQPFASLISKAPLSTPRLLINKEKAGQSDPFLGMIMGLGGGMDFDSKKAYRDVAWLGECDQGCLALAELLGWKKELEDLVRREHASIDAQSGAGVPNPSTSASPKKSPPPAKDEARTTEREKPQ
Description: as §1

full length p300 = molecular target: T3, full length p300 (Homo sapiens, UniProt Q09472); assay: p300 autoacetylation assay in vitro (3H-acetyl CoA, fluorography/autoradiography); assay type: biochemical; conditions: in vitro, concentration dependent
T3 construct: hexahistidine; made in house; host or cells: baculovirus-infected Sf21 cells
Description: (§2) HAT gel fluorography/autoradiography assays were performed as previously reported^30. Kinetic analysis of p300 HAT inhibition was performed as reported earlier^31 in the presence of (0, 30 and 50 μM) CTK7A. The obtained values were plotted as a lineweaver burk plot using Graphpad Prism software. For p300 Autoacetylation assay, reactions of p300 full length (80 ng) were carried out in HAT assay buffer at 30° C. for 10 minutes with or without the protein (NPM1) followed by addition of 1 μl of 4.7 Ci/mmol [^3H] acetyl CoA (NEN-PerkinElmer) and were further incubated for another 10 min in a 30 μl reaction. GAPDH was used as positive control. The radio-labeled acetylated p300 were processed by fluorography followed by autoradiography.

KB cells = assay: Senescence-associated β-gal (SA-β-gal) activity analysis; assay type: cell-based
Description: SA-β-gal activity was analyzed in KB cells as described earlier^47.

Tip60 = Tip60 (Homo sapiens, UniProt Q92993); assay: HAT assay, Tip60; assay type: biochemical; conditions: even at 100 μM
Description: as §2

T3 sequence (Q09472 whole entry, species assumed): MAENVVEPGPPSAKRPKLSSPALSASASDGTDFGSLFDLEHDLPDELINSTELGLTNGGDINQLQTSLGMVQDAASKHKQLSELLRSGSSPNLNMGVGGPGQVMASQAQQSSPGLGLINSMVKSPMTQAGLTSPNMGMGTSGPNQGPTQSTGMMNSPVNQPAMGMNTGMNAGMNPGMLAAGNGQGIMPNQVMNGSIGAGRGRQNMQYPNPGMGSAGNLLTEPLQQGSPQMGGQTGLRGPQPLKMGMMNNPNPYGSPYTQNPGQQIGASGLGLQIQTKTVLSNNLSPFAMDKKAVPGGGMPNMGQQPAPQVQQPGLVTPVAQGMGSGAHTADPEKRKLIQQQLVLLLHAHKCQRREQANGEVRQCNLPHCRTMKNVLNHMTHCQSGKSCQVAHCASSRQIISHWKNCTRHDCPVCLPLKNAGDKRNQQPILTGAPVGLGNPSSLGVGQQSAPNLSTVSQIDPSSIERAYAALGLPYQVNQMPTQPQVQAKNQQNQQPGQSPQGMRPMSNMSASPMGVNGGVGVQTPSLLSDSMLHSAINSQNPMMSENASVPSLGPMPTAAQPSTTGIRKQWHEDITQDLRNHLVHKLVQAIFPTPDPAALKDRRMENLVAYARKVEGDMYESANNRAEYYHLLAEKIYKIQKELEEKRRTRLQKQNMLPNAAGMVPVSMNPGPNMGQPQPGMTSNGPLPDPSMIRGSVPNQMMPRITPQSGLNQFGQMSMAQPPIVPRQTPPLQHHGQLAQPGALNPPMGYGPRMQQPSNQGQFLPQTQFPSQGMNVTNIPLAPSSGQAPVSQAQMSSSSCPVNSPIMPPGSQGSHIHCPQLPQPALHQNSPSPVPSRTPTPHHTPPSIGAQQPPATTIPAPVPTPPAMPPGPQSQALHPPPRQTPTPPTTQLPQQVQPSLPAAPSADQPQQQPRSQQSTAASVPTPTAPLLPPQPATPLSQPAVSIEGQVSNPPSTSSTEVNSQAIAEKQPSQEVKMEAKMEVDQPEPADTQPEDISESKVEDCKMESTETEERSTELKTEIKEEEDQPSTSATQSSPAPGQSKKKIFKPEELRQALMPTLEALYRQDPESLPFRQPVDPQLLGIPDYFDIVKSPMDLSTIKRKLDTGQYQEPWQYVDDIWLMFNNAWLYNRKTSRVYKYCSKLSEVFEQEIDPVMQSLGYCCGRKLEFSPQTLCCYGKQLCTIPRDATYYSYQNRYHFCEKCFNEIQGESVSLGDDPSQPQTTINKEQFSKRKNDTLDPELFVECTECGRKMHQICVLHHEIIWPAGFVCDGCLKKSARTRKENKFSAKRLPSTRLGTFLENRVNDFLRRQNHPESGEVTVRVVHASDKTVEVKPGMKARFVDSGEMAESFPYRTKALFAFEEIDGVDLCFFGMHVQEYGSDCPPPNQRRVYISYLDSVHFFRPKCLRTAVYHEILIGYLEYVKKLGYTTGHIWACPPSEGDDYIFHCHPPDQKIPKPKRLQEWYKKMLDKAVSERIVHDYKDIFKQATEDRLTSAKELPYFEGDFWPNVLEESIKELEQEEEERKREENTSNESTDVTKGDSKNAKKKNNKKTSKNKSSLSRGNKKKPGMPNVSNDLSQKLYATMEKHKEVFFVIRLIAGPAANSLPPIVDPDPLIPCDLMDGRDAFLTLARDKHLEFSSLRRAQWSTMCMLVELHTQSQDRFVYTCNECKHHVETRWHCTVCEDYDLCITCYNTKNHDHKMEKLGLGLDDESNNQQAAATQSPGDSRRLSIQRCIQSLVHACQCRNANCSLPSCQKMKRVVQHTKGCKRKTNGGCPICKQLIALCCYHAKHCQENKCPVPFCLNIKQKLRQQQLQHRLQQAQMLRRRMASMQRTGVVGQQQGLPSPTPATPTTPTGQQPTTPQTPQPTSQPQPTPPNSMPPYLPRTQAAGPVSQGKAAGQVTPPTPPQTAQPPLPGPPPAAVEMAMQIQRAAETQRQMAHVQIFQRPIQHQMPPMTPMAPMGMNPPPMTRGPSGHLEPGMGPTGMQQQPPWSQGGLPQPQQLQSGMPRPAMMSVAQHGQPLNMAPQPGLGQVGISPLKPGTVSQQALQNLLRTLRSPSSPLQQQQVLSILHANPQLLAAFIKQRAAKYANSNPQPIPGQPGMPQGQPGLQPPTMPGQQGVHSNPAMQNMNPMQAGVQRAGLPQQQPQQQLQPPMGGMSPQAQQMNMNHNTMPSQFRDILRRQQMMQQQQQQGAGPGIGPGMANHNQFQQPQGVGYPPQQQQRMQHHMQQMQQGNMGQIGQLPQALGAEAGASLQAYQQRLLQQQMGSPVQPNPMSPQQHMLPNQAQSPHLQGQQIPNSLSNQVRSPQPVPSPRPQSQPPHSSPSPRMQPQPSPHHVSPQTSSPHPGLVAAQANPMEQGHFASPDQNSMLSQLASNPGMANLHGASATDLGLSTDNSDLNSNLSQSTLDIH
Sequence of Tip60 (Q92993 whole entry, species assumed): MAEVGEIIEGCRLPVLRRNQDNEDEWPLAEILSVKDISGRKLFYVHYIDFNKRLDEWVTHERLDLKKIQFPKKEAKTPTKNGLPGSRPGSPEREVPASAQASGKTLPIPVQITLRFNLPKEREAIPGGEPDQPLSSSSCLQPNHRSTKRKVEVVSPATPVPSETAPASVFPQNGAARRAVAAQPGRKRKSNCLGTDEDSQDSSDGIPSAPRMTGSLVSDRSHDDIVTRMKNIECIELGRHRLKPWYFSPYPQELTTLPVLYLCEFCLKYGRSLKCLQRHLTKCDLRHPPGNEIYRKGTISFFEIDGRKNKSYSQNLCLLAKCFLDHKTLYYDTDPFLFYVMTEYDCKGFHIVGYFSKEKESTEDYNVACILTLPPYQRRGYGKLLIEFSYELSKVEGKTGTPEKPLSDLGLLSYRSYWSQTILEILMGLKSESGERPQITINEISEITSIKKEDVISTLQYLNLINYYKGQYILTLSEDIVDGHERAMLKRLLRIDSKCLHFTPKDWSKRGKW

**Q.** For `COc1cc([O-])cc(C=CC2=NN(c3ccc(C(=O)[O-])cc3)C(C=Cc3cc([O-])cc(OC)c3)C2)c1.[Na+].[Na+].[Na+]` (stereo not drawn) [CTK7A, Sodium 4-(3,5-bis(3-methoxy-5-oxidostyryl)-4,5dihydro-1H-pyrazole-1-yl)benzoate], which “acetylation of H3 at the cyclin E promoter” value [1] is on record?
**A.** Its value is “inhibited”.

**Q.** And the “effect on G9a activity” value (G9a)?
**A.** Its value is “unaffected”.

**Q.** What about the “effect on SIRT2 activity” value (SIRT2) of the same compound?
**A.** The value was “unaffected”.

**Q.** And the “inhibition of p300 autoacetylation” value (full length p300)?
**A.** The value was “inhibit”.

**Q.** And the “expression of senescence associated beta-galactosidase (SA-β-gal)” value (KB cells)?
**A.** The value was “induced”.

**Q.** What about the “effect on Tip60 activity” value (Tip60) of the same compound?
**A.** Its value is “unaffected”.
